Assay results published in PMC6733959, “Synthesis and Evaluations of Novel Apocynin Derivatives as Anti-Glioma Agents” (Frontiers in Pharmacology, 2019).

What was measured:
[1] = test system: NADPH oxidase (NOX); assay: NOX activity determination, U87 cells; assay type: cell-based, human; details: 20 and 50 μM
Method: (§1) The effects of candidate drug on NOX activities were measured using cytochrome c reductase (NADPH) Assay Kit (Sigma-Aldrich, St. Louis, MO, USA). Brieﬂy, after the compound treatment (20, 50 μM), the cells were collected and homogenized in an isotonic buffer ([…]), and centrifuged at 1,000 g to obtain the post-nuclear supernatants. Then 50μl samples were added to 950μl working solution (at 25°C) in a 1ml cuvette and mixed by inversion. Then 20μl cytochrome c oxidase inhibitor solution was added. After reaction with 100 μl NADPH solution, the cytochrome c absorbance was monitored at 550 nm by a spectrophotometer.

[2] = test system: rat BMECs; assay: Cytotoxicity of apocynin derivatives on rat BMECs (MTT, 24 h); assay type: cell-based; details: 100 μM, vs control, P < 0.05
Method: (§2) Rat brain microvascular endothelial cells (BMECs) were separated from the cerebral cortex of 18-day-old male Sprague-Dawley rats as described previously ([Biegel et al., 1995]). Briefly, the cerebral cortical tissues were dissected from meninges after the rats were sacrificed, then the tissues were homogenated in physiological buffer solution (pH 7.4). After centrifugation, the pellets were collected, and the microvascular segments were then digested with 0.1% collagenase II at 37°C for 1 h. […] The second passage was used for co-culture of BBB cellular models.
Rat BMECs were collected and seeded into 96-well culture plates at a density of 7.5 × 10^3 cells/well overnight. The cells were treated with different concentrations of the compounds (10, 20, and 100 μM) for 24 h, respectively. Then, 20-μl MTT (5 mg/ml) in fresh medium was added to each well and incubated for another 4 h. Finally, 150μl dimethyl sulfoxide (DMSO) was added to dissolve formazan crystals, and the absorbance was detected at 490 nm in a multiwall-plate reader (BioTek ELx800).

[3] = Transport experiment in the in vitro BBB cell model; assay type: in vitro ADME; details: Sprague-Dawley, rat, apical to basolateral, mean ± SD (n = 3-4), read-out: Papp × 10^−6; for Papp at 90 min, 20 μM: C0 20 μM; for Papp at 90 min, 100 μM: C0 100 μM
Method: as §2
Astrocytes were separated from the cerebral cortex of newborn Sprague-Dawley rats (1–2 days) as described previously ([Jeliazkova-Mecheva and Bobilya, 2003]). The brain tissues (removal of the meninges and blood vessel) were minced and mechanical homogenized and then digested with 0.25% trypsin-EDTA at 37°C for 10 min.
The in vitro BBB cell model was constructed in the Transwell 24well plate ([…], Millipore, USA). Before the experiment, the transwell filters were coated with matrigel matrix. The isolated rat astroglias were seeded onto one side of polycarbonate inserts (5 × 10^4 cells/insert). After 3 to 5 days, the rat BMECs were seeded at a density of 1.5 × 10^5 cells/insert onto the opposite side of the inserts to produce rat BMEC monolayers. The in vitro BBB cell model was formed 3 to 4 days. Trans-epithelial electrical resistance (TEER) measurements were performed everyday after the co-cultures formed until the TEER value increased to […] ([Yang et al., 2014]) ( Figure 2C ).
The transport experiments were performed by adding 400 μl HBSS containing the compounds to the apical side (AP), with 600μl HBSS to the basolateral side (BL) at the same time. Samples (60 μl) were collected from the BL chamber at the time points of 15, 30, 60, 90, 120, and 180 min, and the corresponding volume of HBSS buffer was immediately added into the BL chamber. The samples were precipitated by methanol, and the concentrations of the compounds in the samples were determined by high-performance liquid chromatography (HPLC). The HPLC conditions were as follows: Agilent TC-C18 column (250 × 4.6 mm; 5 μm), methanol 1% ethanoic acid mobile phase (from 10:90 to 90:10, v/v), with gradient elution at a flow rate of 1.0 ml/min. The detection wavelength was 275 nm for these compounds. The run time was 20 min. The apparent permeability coefficients (P app) were calculated from the following formula: P app = (∆Q/∆t)/(A × C 0), where ∆Q/∆t is the linear appearance rate of the compound on the BL side (μmol/s), A is the surface area of the cell monolayer (cm^2), and C 0 is the initial concentration of the drug on the AP side (μmol/L).

[4] = test system: NADPH oxidase (NOX); assay: NOX activity determination, C6 cells; assay type: cell-based, rat; details: 20 and 50 μM
Method: as §1

[5] = design: method as in Wang et al., 2008; details: ref Wang et al., 2008; cited from earlier work
[6] = test system: rat C6 glioma cells; assay: Anti-glioma MTT assay, C6 cells; assay type: cell-based; details: for Anti-proliferation effect on C6 cells (first screening): 10, 20, 100 μM, compared with D1, P < 0.05; for IC50: Rattus norvegicus, C6 cells
Method: (§3) The anti-glioma effects of these compounds were evaluated by MTT assay in rat C6 glioma cells, human glioma U87 and U251 cells, and BMECs cells. Brieﬂy, cells were seeded at the density of 4,000 cells/well in 96-well plates overnight. For the first screening, the cells were incubated with 10, 20, 100 μM compounds for 48 h. Then cell viabilities were detected by MTT assay as described above. For the second screening, the cells were incubated with 6.25-, 12.5-, 25-, 50-, and 100μM compounds for 48 and 96 h, and then detected by MTT assay. The OD of each well was measured at 490 nm on an ELISA microplate reader. The inhibitory rates and IC50 values were calculated.

[7] = test system: human glioma U87 cells; assay: Anti-glioma MTT assay, U87 cells; assay type: cell-based; details: for Anti-proliferation effect on U87 cells (first screening): 10, 20, 100 μM, compared with D1, P < 0.05; for IC50: Homo sapiens, U-87 MG, U87 cells
Method: as §3

[8] = test system: BMECs; assay: MTT assay on normal BMECs (48 and 96 h); assay type: cell-based; details: Rattus norvegicus
Method: as §2, §3

[9] = test system: human glioma U251 cells; assay: Anti-glioma MTT assay, U251 cells; assay type: cell-based
Method: as §3

[10] = test system: C6 glioma; assay: Rat C6 glioma model; assay type: in vivo; details: C6 glioma-bearing Wistar rats, 25 mg/kg i.p. daily; for Tumor volume vs control group: MRI 13 days after treatment
Method: C6 glioma model was established as previously reported ([Xu etal., 2016]). The C6 glioma cells in the logarithmic growth phase were collected for implantation. Male Wistar rats (male, 160–180g) were anesthetized with 10% chloral hydrate, and then a hole (1 mm diameter) was drilled in the cranial bone. C6 cells in PBS were injected slowly (3 × 10^6 cells/rat).
Tumors in the brains of the rats were detected by Bruker 7.0 T Micro-MRI using a T2W RARE sequence (TR/TE 3000/15 ms; slice thickness, 1.0 mm; flip angle, 180°; Matrix 256×256; slice gap, 1.0 mm; FOV, 33×33 mm; time, 4.8 min) 7 days after implantation. Tumor volumes (V) were calculated by the following formula: V = (4/3 × π × LHW)/8, where L is the maximum anteroposterior diameter, H and W are the height and width. Then the rats were sacrificed, and the brain tissues were fixed with formalin, embedded in paraffin, sectioned, and subjected to hematoxylin/eosin (HE) staining and immunohistochemical staining for glial fibrillary acidic protein (GFAP) as previously described ([Xu et al., 2016]). The sections from each animal were analyzed by a pathologist. Only rats with maximum intracerebral tumor diameter of >5.0 mm were used.
After the successful implantation, the rats were randomly divided into […] and treated with different drugs by intraperitoneal injection daily: control group (PBS, n = 6), TMZ group (25 mg/kg, n = 6), D14 group (25 mg/kg, n = 6), and D31 group (25 mg/kg, n = 6). The body weights were recorded everyday after administration. Thirteen days after treatment, brain tumors in the rats were detected by Bruker 7.0 T Micro-MRI as described above. Tumor volumes were calculated and recorded as above.

[11] = cited from earlier work; for BBB penetration rate relative to morphine: ref Oldendorf et al., 1972

Structure (SMILES): COc1cc(C(C)=O)ccc1O [Compound D1, 4-hydroxy-3-methoxyacetophenone, reference compound]
- Effect on NOX activities vs control [1]: significantly inhibited
- Effect on cell viability of rat BMECs [2]: significantly inhibit the cell viability
- Papp at 90 min, 20 μM [3]: 4.95 ± 0.39 ×10⁻⁶ cm/s
- Effect on NOX activities vs control [4]: significantly inhibited
- Amount in the brain tissue relative to that present in the blood [5]: < 8%

Structure (SMILES): COc1cc(C(=O)CNc2ccccc2)ccc1OCc1ccccc1 [Compound D5, 1-(4-(Benzyloxy)-3-Methoxyphenyl)-2-(Phenylamino)Ethan-1-One]
- Papp at 90 min, 100 μM [3]: 10.3 ± 0.31 ×10⁻⁶ cm/s

Structure (SMILES): COc1cc(C(=O)CNc2ccc(F)cc2)ccc1OCc1ccccc1 [Compound D6, 1-(4-(Benzyloxy)-3-Methoxyphenyl)-2-((4-Fluorophenyl)Amino) Ethan-1-One]
- Papp at 90 min, 100 μM [3]: 8.68 ± 0.45 ×10⁻⁶ cm/s

Structure (SMILES): COc1cc(C(=O)CNc2ccccc2)ccc1O [Compound D13, 1-(4-Hydroxy-3-Methoxyphenyl)-2-(Phenylamino)Ethan-1-One]
- Effect on cell viability of rat BMECs [2]: significantly inhibit the cell viability
- Papp at 90 min, 20 μM [3]: 5.41 ± 0.52 ×10⁻⁶ cm/s
- Anti-proliferation effect on C6 cells (first screening) ([6]; 48 h): significant anti-proliferation effects

Structure (SMILES): COc1cc(C(=O)CNc2ccc(F)cc2)ccc1O [Compound D14, 2-((4-Fluorophenyl)amino)-1-(4-Hydroxy-3-Methoxyphenyl)Ethan-1-One]
- Anti-proliferation effect on U87 cells (first screening) ([7]; 48 h): significant anti-proliferation effects
- IC50 ([7]; 48 h): 61.6 µM
- IC50 ([7]; 96 h): 60.1 µM
- IC50 ([8]; 48 h): > 100 µM
- IC50 ([8]; 96 h): 78.2 µM
- Effect on cell viability of rat BMECs [2]: significantly inhibit the cell viability
- IC50 ([9]; U-251, 48 h): 71.6 µM
- IC50 ([9]; U-251, 96 h): 34.5 µM
- Papp at 90 min, 20 μM [3]: 4.24 ± 1.3 ×10⁻⁶ cm/s
- Body weight changes vs control group [10]: no obvious body weight changes
- Tumor volume vs control group [10]: no obvious growth inhibitory effects
- Anti-proliferation effect on C6 cells (first screening) ([6]; 48 h): significant anti-proliferation effects
- IC50 ([6]; 48 h): 37.2 µM
- IC50 ([6]; 96 h): 22.9 µM

Structure (SMILES): COc1cc(NCC(=O)c2ccc(O)c(OC)c2)cc(OC)c1 [Compound D16, 2-((3,5-Dimethoxyphenyl)Amino)-1-(4-Hydroxy-3-Methoxyphenyl)Ethan-1-One]
- Effect on cell viability of rat BMECs [2]: significantly inhibit the cell viability
- Papp at 90 min, 20 μM [3]: 2.54 ± 0.58 ×10⁻⁶ cm/s

Structure (SMILES): COc1cc(C(=O)CNc2ccc(F)cc2F)ccc1O [Compound D21, 2-((2,4-Difluorophenyl)Amino)-1-(4-Hydroxy-3-Methoxyphenyl)Ethan-1-One]
- Papp at 90 min, 100 μM [3]: 6.08 ± 0.65 ×10⁻⁶ cm/s

Structure (SMILES): COc1cc(C(=O)CNc2ccc(Cl)cc2)ccc1O [Compound D22, 2-((4-Chlorophenyl)Amino)-1-(4-Hydroxy-3-Methoxyphenyl)Ethan-1-One]
- Papp at 90 min, 100 μM [3]: 5.42 ± 0.58 ×10⁻⁶ cm/s

Structure (SMILES): COc1cc(C(=O)CSCc2ccccc2)ccc1O [Compound D33, 2-(Benzylthio)-1-(4-Hydroxy-3-Methoxyphenyl)Ethan-1-One]
- Effect on cell viability of rat BMECs [2]: significantly inhibit the cell viability
- Papp at 90 min, 20 μM [3]: 9.58 ± 2.35 ×10⁻⁶ cm/s
- Anti-proliferation effect on C6 cells (first screening) ([6]; 48 h): significant anti-proliferation effects

Structure (SMILES): COc1cc(C(=O)CSCc2ccc(F)cc2)ccc1O [Compound D34, 2-((4-Fluorobenzyl)Thio)-1-(4-Hydroxy-3-Methoxyphenyl)Ethan-1-One]
- Effect on cell viability of rat BMECs [2]: significantly inhibit the cell viability
- Papp at 90 min, 20 μM [3]: 11.9 ± 1.53 ×10⁻⁶ cm/s
- Anti-proliferation effect on C6 cells (first screening) ([6]; 48 h): significant anti-proliferation effects

Structure (SMILES): CCC1(c2ccccc2)C(=O)NC(=O)NC1=O [Phenobarbital, 5-ethyl-5-phenylbarbituric acid]
- BBB penetration rate relative to barbituric acid ([11]; ref Liu et al., 2007): increased BBB penetration rate

Structure (SMILES): Cn1nnc2c(C(N)=O)ncn2c1=O [TMZ, Temozolomide, reference compound]
- Anti-proliferation effect on U87 cells (first screening) ([7]; 48 h): significant anti-proliferation effects
- IC50 ([7]; 48 h): 54.1 µM
- IC50 ([7]; 96 h): 28.4 µM
- IC50 ([8]; 48 h): 94.5 µM
- IC50 ([8]; 96 h): 54.4 µM
- Effect on cell viability of rat BMECs [2]: significantly inhibit the cell viability
- IC50 ([9]; U-251, 48 h): 48.1 µM
- IC50 ([9]; U-251, 96 h): 15.3 µM
- Papp at 90 min, 20 μM [3]: 7.74 ± 0.34 ×10⁻⁶ cm/s
- Body weight changes vs control group [10]: no obvious body weight changes
- Tumor volume vs control group [10]: significantly decreased
- Anti-proliferation effect on C6 cells (first screening) ([6]; 48 h): significant anti-proliferation effects
- IC50 ([6]; 48 h): 51.1 µM
- IC50 ([6]; 96 h): 36.8 µM

Structure (SMILES): COc1ccc2c3c1O[C@H]1[C@@H](O)C=C[C@H]4[C@@H](C2)N(C)CC[C@@]341 [codeine]
- BBB penetration rate relative to morphine [11]: 10 times

Structure (SMILES): CC(=O)Oc1ccc2c3c1O[C@H]1[C@@H](OC(C)=O)C=C[C@H]4[C@@H](C2)N(C)CC[C@@]341 [heroin, diacetylmorphine]
- BBB penetration rate relative to morphine [11]: 100 times
